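How tested: cells in 96-well plates exposed to compound for 48 hours at five concentrations. At the GI50, growth is halved.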 Active and inactive are the calls of the source. No stated cut-off is given here; in the data, active = GI50 up to about 1.1 µM and inactive = higher. *1 amine or outer side, *2 acyl side, *3 side chain or, on linkers, in order; H or OH if unused. Where a SMILES comes first, the peptide text is derived from it. Square brackets hold non-standard residues; d marks the D form. Bridges are numbered along the chain shown (N, C = ends). Roman numbers before positions name the chains, in order. Peptide text beside a SMILES is read from it. [ ]: non-standard residue; d: D form. * marks the point of attachment. ξ: configuration not given here. Actinocin(9to1) = Cc1c2oc3c(C)ccc(C(=O)[*:1])c3nc-2c(C(=O)[*:2])c(N)c1=O; NMeV = CN[CH](C(=O)O)C(C)C; ξD = NC(CC(=O)O)C(=O)O; Ac3c = NC1(C(=O)O)CC1; Boc = CC(C)(C)OC(=O)*; OtBu = CC(C)(C)O*; Sar = CNCC(=O)O
What was measured:
Assay in all cases: NCI-60 cell line screen, 48 h
786-0 = tested on: 786-0
A549 = tested on: A549
BT-549 = tested on: BT-549
DU-145 = tested on: DU-145
HCT-15 = tested on: HCT-15
HT-29 = tested on: HT-29
IGROV-1 = tested on: IGROV-1
KM12 = tested on: KM12
M14 = tested on: M14
MCF7 = tested on: MCF7
NCI-H522 = tested on: NCI-H522
OVCAR-5 = tested on: OVCAR-5
OVCAR-8 = tested on: OVCAR-8
PC-3 = tested on: PC-3
RXF 393 = tested on: RXF 393
SN12C = tested on: SN12C
TK-10 = tested on: TK-10
U-251 = tested on: U-251
UACC-62 = tested on: UACC-62

Row | Compound | GI50 (786-0) | GI50 (A549) | GI50 (BT-549) | GI50 (DU-145) | GI50 (HCT-15) | GI50 (HT-29) | GI50 (IGROV-1) | GI50 (KM12) | GI50 (M14) | GI50 (MCF7) | GI50 (NCI-H522) | GI50 (OVCAR-5) | GI50 (OVCAR-8) | GI50 (PC-3) | GI50 (RXF 393) | GI50 (SN12C) | GI50 (TK-10) | GI50 (U-251) | GI50 (UACC-62)
1 | Cc1c2oc3c(C)ccc(C(=O)NC4C(=O)NC(Cc5ccccc5)C(=O)N5CCCC5C(=O)N(C)CC(=O)N(C)C(C(C)C)C(=O)OC4C)c3nc-2c(C(=O)NC2C(=O)NC(Cc3ccccc3)C(=O)N3CCCC3C(=O)N(C)CC(=O)N(C)C(C(C)C)C(=O)OC2C)c(N)c1=O (stereo not given) (I: TFP[Sar][NMeV] / II: TFP[Sar][NMeV]; ester I:1-I:C, II:1-II:C; linker I:N-II:N via Actinocin(9to1); configuration not given here) | < 0.001 µM (active) | < 0.001 µM (active) | 0.01 µM (active) | < 0.001 µM (active) | 0.0296 µM | < 0.001 µM (active) | < 0.001 µM (active) | < 0.001 µM (active) | 0.0105 µM (active) | < 0.001 µM (active) | < 0.001 µM (active) | 0.00484 µM (active) | < 0.001 µM (active) | < 0.001 µM (active) | 0.0135 µM (active) | < 0.001 µM (active) | 0.021 µM (active) | < 0.001 µM (active) | < 0.001 µM (active)
2 | Cc1ccc(S(=O)(=O)n2cncc2CO)cc1 | > 100 µM (inactive) | > 100 µM (inactive) | > 100 µM (inactive) | > 100 µM (inactive) | > 100 µM | > 100 µM (inactive) | > 100 µM (inactive) | > 100 µM (inactive) | > 100 µM (inactive) | > 100 µM (inactive) | > 100 µM (inactive) | > 100 µM (inactive) | > 100 µM (inactive) | > 100 µM (inactive) | > 100 µM (inactive) | > 100 µM (inactive) | > 100 µM (inactive) | > 100 µM (inactive) | > 100 µM (inactive)
3 | COC(=O)C1(NC(=O)C(CC(=O)OC(C)(C)C)NC(=O)OC(C)(C)C)CC1 (stereo not given) (Boc-[ξD](OtBu)-[Ac3c]-OMe) | > 100 µM (inactive) | > 100 µM (inactive) | > 100 µM (inactive) | > 100 µM (inactive) | > 100 µM | > 100 µM (inactive) | > 100 µM (inactive) | > 100 µM (inactive) | > 100 µM (inactive) | > 100 µM (inactive) | > 100 µM (inactive) | > 100 µM (inactive) | > 100 µM (inactive) | > 100 µM (inactive) | > 100 µM (inactive) | > 100 µM (inactive) | > 100 µM (inactive) | > 100 µM (inactive) | 1.19 µM (inactive)
4 | COP(=O)(C(/C=C/c1ccccc1)OC(C)=O)[C@@H]1CCCC[C@H]1N(CC(C)(C)C)C(C)=O (stereo not given in full) | 17.3 µM (inactive) | 16.8 µM (inactive) | 16.8 µM (inactive) | 15 µM (inactive) | 15.9 µM | 10.2 µM (inactive) | 10.6 µM (inactive) | 26.2 µM (inactive) | 14.4 µM (inactive) | 22.5 µM (inactive) | 12.1 µM (inactive) | 19.2 µM (inactive) | 16.8 µM (inactive) | 14 µM (inactive) | 7.29 µM (inactive) | 14.8 µM (inactive) | 20.2 µM (inactive) | 15.8 µM (inactive) | 14 µM (inactive)
5 | CCc1n[nH]c(=O)n1-n1c(C)ccc1C | > 100 µM (inactive) | > 100 µM (inactive) | > 100 µM (inactive) | > 100 µM (inactive) | > 100 µM | > 100 µM (inactive) | > 100 µM (inactive) | > 100 µM (inactive) | > 100 µM (inactive) | > 100 µM (inactive) | > 100 µM (inactive) | > 100 µM (inactive) | > 100 µM (inactive) | > 100 µM (inactive) | > 100 µM (inactive) | > 100 µM (inactive) | > 100 µM (inactive) | > 100 µM (inactive) | > 100 µM (inactive)

Reference: ChEMBL document CHEMBL1201862, “PubChem BioAssay data set” (2004)
